The numbers were not newly measured in patent US20160243146A1, “LEVIA : A New Injectable Parasiticidal Veterinary Formulation of Levamisole HCl and Ivermectin Solution” (priority 2015, published 2016), which cites them from elsewhere.

For data set [1] the following is noted: dissolved in propylene glycol solvent.

For Ivermectin, the solubility in water entry (room temperature) is “about 0.005 mg per ml”. Further, under “water”, the stability in water entry was “unstable in water”. In addition, the “period of release into the blood” value in data set [1] is reported as “up to 14 days”.
